Where a name gives a salt, the structure may show the parent alone.
What follows are compounds tested against human FLAP (Homo sapiens (Human), UniProt P20292) (assay: FLAP binding assay (HTRF format)). Conditions: human FLAP wild type, HTRF format; average of two plates, duplicates.
Description: The ability of the compounds of the present invention to treat a FLAP-mediated disease and/or disorder, or associated symptoms or complications thereof, was determined using the following procedures. Binding assay data represent the average value obtained from two different assay plates, with samples run in duplicate on each plate. Human whole blood assay data represent a single replicate on an assay plate using whole blood from at least one healthy donor.
Data are expressed as a HTRF ratio.

human FLAP, sequence (P20292 whole entry): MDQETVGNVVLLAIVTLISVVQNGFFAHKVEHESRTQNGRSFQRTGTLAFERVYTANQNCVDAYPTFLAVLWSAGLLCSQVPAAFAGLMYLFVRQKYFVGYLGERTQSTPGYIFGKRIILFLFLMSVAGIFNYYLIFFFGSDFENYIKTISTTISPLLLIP

| SMILES | Ki |
| --- | --- |
| NC(=O)NC1CCN(S(=O)(=O)Cc2ccccc2-c2ccc(-c3cnc(N)cn3)c(F)c2)CC1 [Example 232, 1-[1-({[4′-(5-Aminopyrazin-2-yl)-3′-fluorobiphenyl-2-yl]methyl}sulfonyl)piperidin-4-yl]urea hydrochloride] | 0.358 µM |
| Nc1ncc(-c2ccc(-c3ccccc3S(=O)(=O)N3CCNCC3)cc2F)cn1 [Example 290, 5-[3-Fluoro-2′-(piperazin-1-ylsulfonyl)biphenyl-4-yl]pyrimidin-2-amine trifluoroacetic acid salt] | 0.94 µM |
| C[C@@H](CO)NS(=O)(=O)c1ccccc1-c1ccc(-c2ccc(N)nc2)c(F)c1 [Example 347, (S)-4′-(6-Aminopyridin-3-yl)-3′-fluoro-N-(1-hydroxypropan-2-yl)-[1,1′-biphenyl]-2-sulfonamide] | 0.077 µM |
| Nc1cnc(S(=O)(=O)c2ccccc2-c2ccc(-c3cnc(N)nc3)c(F)c2)nc1 [Example 339, 5-{2′-[(5-Aminopyrimidin-2-yl)sulfonyl]-3-fluorobiphenyl-4-yl}pyrimidin-2-amine hydrochloride] | 2.5 µM |
| Nc1ncc(-c2ccc(-c3ccccc3S(=O)(=O)N3CCOCC3)cc2F)cn1 [Example 303, 5-[3-Fluoro-2′-(morpholin-4-ylsulfonyl)biphenyl-4-yl]pyrimidin-2-amine trifluoroacetic acid salt] | 0.612 µM |

Same assay, conditions: wild type FLAP, HTRF format

| SMILES | Ki |
| --- | --- |
| CS(=O)(=O)Nc1ccccc1-c1ccc(-c2ccc(N)nc2)c(F)c1 [Example 659, N-(4′-(6-Aminopyridin-3-yl)-3′-fluoro-[1,1′-biphenyl]-2-yl)methanesulfonamide] | ~0.75 µM |
| CC(C)(C)NS(=O)(=O)c1ccccc1-c1ccc(-c2cn3cc(C#N)ccc3n2)c(F)c1 [Example 585, N-tert-Butyl-4′-(6-cyanoimidazo[1,2-a]pyridin-2-yl)-3′-fluorobiphenyl-2-sulfonamide] | > 10 µM |
| Nc1ncc(-c2ccc(-c3ccccc3S(=O)(=O)CCNC(=O)c3ccccc3)cc2F)cn1 [Example 716, N-(2-{[4′-(2-Aminopyrimidin-5-yl)-3′-fluorobiphenyl-2-yl]sulfonyl}ethyl)benzamide] | > 10 µM |
| Nc1ccnc(S(=O)(=O)c2ccccc2-c2ccc(-c3cnc(N)nc3)c(F)c2)n1 [Example 722, 5-{2′-[(4-Aminopyrimidin-2-yl)sulfonyl]-3-fluorobiphenyl-4-yl}pyrimidin-2-amine] | > 10 µM |
| Nc1cnc(S(=O)(=O)c2ccccc2-c2ccc(-c3cnc(N)nc3)c(F)c2)cn1 [Example 723, 5-{2′-[(5-Aminopyrazin-2-yl)sulfonyl]-3-fluorobiphenyl-4-yl}pyrimidin-2-amine] | > 10 µM |
| Fc1cc(-c2cccnc2OCC(F)(F)F)ccc1-c1cnc2[nH]ccc2n1 [Example 397, 2-{2-Fluoro-4-[2-(2,2,2-trifluoroethoxy)pyridin-3-yl]phenyl}-5H-pyrrolo[2,3-b]pyrazine] | > 10 µM |
| Nc1cncc(S(=O)(=O)c2ccccc2-c2ccc(-c3cnc(N)nc3)c(F)c2)n1 [Example 725, 5-{2′-[(6-Aminopyrazin-2-yl)sulfonyl]-3-fluorobiphenyl-4-yl}pyrimidin-2-amine] | 1.3 µM |
| N#Cc1nc(-c2ccc(-c3ccccc3C(=O)N3CCOCC3)cc2F)cnc1N [Example 416, 3-Amino-6-[3-fluoro-2′-(morpholin-4-ylcarbonyl)biphenyl-4-yl]pyrazine-2-carbonitrile] | 1.25 µM |
| CS(=O)(=O)Nc1ccccc1-c1ccc(-c2cnc(N)cn2)cc1 [Example 593, N-[4′-(5-Aminopyrazin-2-yl)biphenyl-2-yl]methanesulfonamide] | > 10 µM |
| Nc1ncc(-c2ccc(-c3ccccc3C(=O)N3CCOCC3)cn2)cn1 [Example 677, 5-{5-[2-(Morpholin-4-ylcarbonyl)phenyl]pyridin-2-yl}pyrimidin-2-amine] | > 10 µM |
| CC(C)(C)C(=O)Nc1ncccc1-c1ccc(-c2cnc(N)nc2)c(F)c1 [Example 800, N-{3-[4-(2-Aminopyrimidin-5-yl)-3-fluorophenyl]pyridin-2-yl}-2,2-dimethylpropanamide] | > 10 µM |
| C[C@@H](CO)NC(=O)c1ccccc1-c1ccc(-c2cnc(N)nc2)c(F)c1 [Example 517, 4′-(2-Aminopyrimidin-5-yl)-3′-fluoro-N-[(1S)-2-hydroxy-1-methylethyl]biphenyl-2-carboxamide] | > 10 µM |
| Cc1c(-c2ccccc2NS(C)(=O)=O)ccc(-c2cnc(N)cn2)c1F [Example 463, N-[4′-(5-Aminopyrazin-2-yl)-3′-fluoro-2′-methylbiphenyl-2-yl]methanesulfonamide] | 0.982 µM |
| Nc1cnc(-c2ccc(-c3ccccc3C(=O)N3CCNCC3)cc2F)cn1 [Example 506, 5-[3-Fluoro-2′-(piperazin-1-ylcarbonyl)biphenyl-4-yl]pyrazin-2-amine] | > 10 µM |
| CS(=O)(=O)Cc1ccccc1-c1ccc(-c2cnc(N)cn2)c(F)c1 [Example 750, 5-{3-Fluoro-2′-[(methylsulfonyl)methyl]biphenyl-4-yl}pyrazin-2-amine] | 1.16 µM |
| CC(C)(C)NS(=O)(=O)c1ccccc1-c1ccc(-c2ccc3c(c2)CC(=O)N3)c(F)c1 [Example 595, N-tert-Butyl-3′-fluoro-4′-(2-oxo-2,3-dihydro-1H-indol-5-yl)biphenyl-2-sulfonamide] | ~2.49 µM |
| CC(O)C1CN(C(=O)c2ccccc2-c2ccc(-c3cnc(N)nc3)c(F)c2)CCO1 (mixture of isomers) [Example 759, 1-(4-{[4′-(2-Aminopyrimidin-5-yl)-3′-fluorobiphenyl-2-yl]carbonyl}morpholin-2-yl)ethanol (diastereomeric mixture)] | > 10 µM |
| Nc1ncc(-c2ccc(-c3ccccc3C(=O)N3CC[C@H](O)C3)cc2F)cn1 [Example 772, (3S)-1-{[4′-(2-Aminopyrimidin-5-yl)-3′-fluorobiphenyl-2-yl]carbonyl}pyrrolidin-3-ol] | > 10 µM |
| Nc1ncc(-c2ccc(-c3ccccc3S(=O)(=O)c3ccnc(N)n3)cc2F)cn1 [Example 724, 4-{[4′-(2-Aminopyrimidin-5-yl)-3′-fluorobiphenyl-2-yl]sulfonyl}pyrimidin-2-amine] | > 10 µM |
| Nc1cnc(-c2ccc(-c3cccnc3OCCO)cc2F)cn1 [Example 650, 2-({3-[4-(5-Aminopyrazin-2-yl)-3-fluorophenyl]pyridin-2-yl}oxy)ethanol] | 0.832 µM |
| Nc1ccnc(Oc2ccccc2-c2ccc(-c3cnc(N)nc3)nc2)n1 [Example 568, 5-(5-{2-[(4-Aminopyrimidin-2-yl)oxy]phenyl}pyridin-2-yl)pyrimidin-2-amine] | 2.5 µM |
| C[C@H](NC(=O)c1ccccc1-c1ccc(-c2cnc(N)nc2)c(F)c1)C(F)(F)F [Example 504, 4′-(2-Aminopyrimidin-5-yl)-3′-fluoro-N-[(1S)-2,2,2-trifluoro-1-methylethyl]biphenyl-2-carboxamide] | 0.768 µM |
| CC(C)(C)NS(=O)(=O)c1ccccc1-c1ccc(-c2cnc(N)c(C(=O)O)n2)c(F)c1 [Example 598, 3-Amino-6-[2′-(tert-butylsulfamoyl)-3-fluorobiphenyl-4-yl]pyrazine-2-carboxylic acid] | > 10 µM |
| Nc1ncc(-c2ccc(-c3ccccc3Oc3ncccn3)cn2)cn1 [Example 566, 5-{5-[2-(Pyrimidin-2-yloxy)phenyl]pyridin-2-yl}pyrimidin-2-amine] | > 10 µM |
